Series [1] has as its system all gram-positive bacterial strains. Put plainly: Mean MIC and therapeutic index, gram-positive strains. Type of series: cell-based. The conditions noted are these: four gram-positive strains. How it is done: (§1) The minimal inhibitory concentrations (MICs) of peptide derivatives versus planktonic bacteria were assessed using a modification of the broth microdilution assay previously described in the National Committee for Clinical Laboratory Standards (NCCLS). In brief, bacteria at mid-logarithmic growth were collected by centrifugation at 2,500 × g for 5 min. Subsequently, the pellet was resuspended and adjusted in Mueller-Hinton Broth (MHB; BD Bacto™, USA) to an OD620 of 0.05. Fifty µL of bacterial suspensions was transferred to 96-well microplates. Later, 50 µL of peptide derivatives at 0.98–250 µg/mL in 10 mM PBS, was added to wells and incubated for 24 h at 37°C with continuous shaking at 220 rpm. […] The experiments were done in three technical replicates and repeated independently.
(§2) The therapeutic index (TI) is widely used for evaluating a peptide’s efficacy and safety. It is the ratio between the minimum hemolytic concentration (MHC, the concentration causing 10% hemolysis) and the geometric mean (GM) value of the MIC [15]. […] While, both lysine-substituted peptides (BiF2_7K and BiF2_5K7K) had higher TIs against all tested biofilm-forming bacteria than did the two parent peptides, and the TI of BiF2_5K7K was higher than that of BiF2_7K.

For series [2], the system named is Staphylococcus epidermidis ATCC 35984. Nature of the series: Broth microdilution MIC / MBC. Type of series: cell-based. To be noted: 24 h, 37°C. How it is done: as §1
(§3) To determine minimal bactericidal concentrations (MBCs) of the peptides, 50 µL of supernatant from non-turbid wells was plated on TSA, and the number of colony-forming units (CFUs) was observed after 24 h of incubation at 37°C. MBC was defined as the minimum concentration of peptide at which no bacterial colony was observed on the plate.
Background: Dilution methods test growth across graded concentrations, often in twofold steps.

For series [3], the system named is Pseudomonas aeruginosa ATCC 27853. Nature of the series: Broth microdilution MIC / MBC. Type of series: cell-based. To be noted: 24 h, 37°C. As for the experimental part: as §1, §3
Series [4] deals with Salmonella Typhimurium ATCC 13311. Put plainly: Broth microdilution MIC / MBC. Type of series: cell-based. To be noted: 24 h, 37°C. As for the experimental part: as §1, §3
Series [5] concerns Bacillus cereus ATCC 11778. Nature of the series: Broth microdilution MIC / MBC. Type of series: cell-based. The conditions noted are these: 24 h, 37°C. How it is done: as §1, §3
The test system of series [6] is Acinetobacter baumanii MT strain. Put plainly: Broth microdilution MIC / MBC. Type of series: cell-based. To be noted: 24 h, 37°C. As for the experimental part: as §1, §3
Series [7] concerns Staphylococcus aureus ATCC 25923. Put plainly: Broth microdilution MIC / MBC. In kind it is cell-based. The conditions noted are these: 24 h, 37°C. As for the experimental part:
as §1, §3

Series [8] relates to Escherichia coli ATCC 25922. Nature of the series: Broth microdilution MIC / MBC. Type of series: cell-based. To be noted: 24 h, 37°C. As for the experimental part:
as §1, §3

The subject of series [9] is Listeria monocytogenes 10403s. Nature of the series: Broth microdilution MIC / MBC. In kind it is cell-based. To be noted: 24 h, 37°C. As for the experimental part: as §1, §3
For series [10], the system named is S. epidermidis (ATCC 35984) biofilm. Put plainly: Biofilm-formation inhibitory activity, crystal violet staining. To be noted: CV staining, TSB, 10^6 CFU/mL, 24 h, 37°C, 0.98-250 µg/mL. In kind it is cell-based, Staphylococcus epidermidis. As for the experimental part: The biofilm inhibitory activity of peptide derivatives was assessed by modified crystal violet (CV) staining. Briefly, the pellet of S. epidermidis (ATCC 35984) was collected through centrifugation of bacterial suspensions grown overnight at 2,500 × g for 5 min. Subsequently, the pellet was resuspended and diluted with TSB to a final concentration of 10^6 CFU/mL. Then, 50 µL of these diluted suspensions was transferred to 96-well microplates containing same volume of peptide derivatives in 10 mM phosphate buffer saline (PBS; Caisson Labs, USA), with concentrations ranging from 0.98 to 250 µg/mL. Vancomycin was used as positive control while TSB medium without bacteria was used as negative control. After 24 h of incubation and reaching static growth at 37°C, culture media as well as planktonic cells were removed, then the biofilm in each well was washed thrice with 0.85% NaCl. For CV staining, biofilms were fixed with 95% ethanol and stained with a 0.1% (v/v) CV solution for 15 min. After removal of excess dye, each well was washed thrice with 0.85% NaCl and resuspended in 95% ethanol to dissolve bound dye. Absorbance was determined at 570 nm using a Multiskan SkyHigh microplate reader (Thermo Scientific™, Singapore). All experiments were done in six technical replicates and repeated independently three times. Minimum biofilm inhibitory concentrations at 50% and 90% (MBIC50 and MBIC90) refers to concentrations of the peptide at which the inhibition of biofilm was at least 50% and 90%, respectively.

The test system of series [11] is human red blood cells (hRBCs). Nature of the series: Hemolysis activity (hemoglobin release). Type of series: cell-based. To be noted: 1 h, 37°C. How it is done: The effect of peptides on human red blood cells (hRBCs) was assessed by observing the release of hemoglobin upon treated with peptide. Briefly, the hRBCs were obtained from healthy volunteers and subsequently diluted in 10 mM PBS to a concentration of 2% hRBCs. An equal volume of 2% hRBCs and peptide at concentration of 0.98–250 µg/mL in 10 mM PBS mixtures were incubated for 1 h at 37°C. Following incubation, the suspension was centrifuged, then supernatants were collected and transferred to 96-well microplates for measurement of absorbance at OD of 405 nm (OD405). This study was performed in accordance with the Thammasat University Ethics Committee (COA No. 066/2562). Written informed consent was obtained from all volunteers.

For the next series, the system named is biofilm-forming bacteria. Put plainly: Antibacterial activity against the panel of planktonic biofilm-forming bacteria. Type of series: cell-based. How it is done:
The biofilm-forming bacteria, including S. epidermidis ATCC 35984, Staphylococcus aureus ATCC 25923, Bacillus cereus ATCC 11778, Listeria monocytogenes 10403s, Pseudomonas aeruginosa ATCC 27853, Salmonella Typhimurium ATCC 13311, Escherichia coli ATCC 25922 and Acinetobacter baumanii MT strain, were used. All bacterial strains were grown on tryptic soy agar (TSA; BD Bacto™, USA) except E. coli and L. monocytogenes which were cultured on Luria agar (LA) and TSA supplemented with 0.6% Yeast Extract (TSAYE), respectively, at 37°C overnight. Subsequently, isolated colonies were inoculated and cultured in 5 mL of tryptic soy broth (TSB; BD Bacto™, USA), Luria Broth (LB), or TSB supplemented with 0.6% Yeast Extract (TSBYE) at 37°C for 16–18 h.
The minimal inhibitory concentrations (MICs) of peptide derivatives versus planktonic bacteria were assessed using a modification of the broth microdilution assay previously described in the National Committee for Clinical Laboratory Standards (NCCLS). In brief, bacteria at mid-logarithmic growth were collected by centrifugation at 2,500 × g for 5 min. Subsequently, the pellet was resuspended and adjusted in Mueller-Hinton Broth (MHB; BD Bacto™, USA) to an OD620 of 0.05. Fifty µL of bacterial suspensions was transferred to 96-well microplates. […]

In series [12] the test system is all gram-negative bacterial strains. Nature of the series: Mean MIC and therapeutic index, gram-negative strains. In kind it is cell-based. The conditions noted are these: four gram-negative strains. As for the experimental part:
as §1, §2

[13] abbreviates: broth microdilution, MHB, 0.98-250 µg/mL, visible inspection.
Setting [14] is: plating of non-turbid wells on TSA.

Experimental findings from paper PMC11100219, “Dual-function antimicrobial-antibiofilm peptide hybrid to tackle biofilm-forming Staphylococcus epidermidis” (Annals of Clinical Microbiology and Antimicrobials, 2024) are described below.

Residues, ends and D or L forms follow the SMILES beside them.

Broadly, the MIC is the smallest concentration in the dilution series that meets the test's criterion for growth inhibition. Usually MBC stands for the lowest tested concentration that kills the bacteria rather than only halting them. As to `CC[C@H](C)[C@H](NC(=O)[C@H](CC(C)C)NC(=O)[C@H](CCCCN)NC(=O)[C@@H](NC(=O)[C@H](CC(C)C)NC(=O)[C@@H](N)Cc1ccccc1)C(C)C)C(=O)N[C@@H](CC(C)C)C(N)=O` [BiF] (H-FLVKLIL-NH2; N-terminus assumed), in [1], the “GM +, geometric mean of MIC values from all gram-positive bacterial strains” value is given as more than 250 µg/mL. For the same molecule, the MIC in [2] (setting [13]), in series [3] (setting [13]), in [4] (setting [13]), in [5] (setting [13]), in series [6] (setting [13]) and in series [7] (setting [13]) was more than 250 µg/mL each time. The MIC in series [8] (setting [13]) and in series [9] (setting [13]) was more than 250 µg/mL each time. The MBC in series [2] (setting [14]), in series [3] (setting [14]), in series [4] (setting [14]), in series [5] (setting [14]), in series [6] (setting [14]) and in series [7] (setting [14]) was more than 250 µg/mL throughout. The MBC in [8] (setting [14]) and in series [9] (setting [14]) was more than 250 µg/mL throughout. The molecule also had an MBIC50 in [10] (minimum concentration inhibiting biofilm formation more than 50%) of 125 µg/mL. In addition, the MBIC90 in [10] (minimum concentration inhibiting biofilm formation more than 90%) is more than 250 µg/mL. For the same molecule, the “hRBCs lysed (hemolysis)” value in [11] (at 31.25 µg/mL) is given as “more than 20%”. The hemolytic activity in series [11] (at 250 µg/mL (maximum concentration tested)) came to 100%. Further, the “MHC, minimum hemolytic concentration” value in series [11] (peptide concentration causing 10% hemolysis of hRBCs, 2% hRBCs in 10 mM PBS, OD405) is 15.63 µg/mL. In addition, in the series with biofilm-forming bacteria, the “antibacterial activity against target bacteria” value is reported as “no antibacterial activity”. Besides, in [12], the “GM-, geometric mean of MIC values from all gram-negative bacterial strains” value is more than 250 µg/mL.
